Source: patent US8604038B2, “Pyrrolidine derived beta 3 adrenergic receptor agonists” (Merck Sharp & Dohme Corp., priority 2009, dated 2013)

Biological target: T1, human β3 adrenergic receptor (Homo sapiens, UniProt P13945)
T1 construct: expressed in transfected cells; host or cells: CHO (Chinese hamster ovary) cells, stably transfected
Experiment: Beta-3 agonist in vitro functional assay (cAMP production, LANCE, transfected CHO cells)
Format: cell-based
Conditions: Table 1, CHO cells with cloned β3 receptor, ligands titrated 10^-10 M to 10^-5 M, read-out: Human β3 agonist functional activity
Experimental: Functional Assay: For compounds in examples 1-50, cAMP production in response to ligand is measured according to Barton, et al. (1991, Agonist-induced desensitization of D2 dopamine receptors in human Y-79 retinoblastoma cells. Mol. Pharmacol. […]:650-658) modified as follows. The cAMP production is measured using a homogenous time-resolved fluorescence resonance energy transfer immunoassay (LANCE™, Perkin Elmer) according to the manufacture's instructions. Chinese hamster ovary (CHO) cells, stably transfected with the cloned β-adrenergic receptor (β1, β2 or β3) are harvested after 3 days of subculturing. Harvesting of cells is done with Enzyme-free Dissociation Media (Specialty Media). Cells are then counted and resuspended in assay buffer (Hank's Balanced salt solution supplemented with 5 mM HEPES, […]) containing a phosphodiesterase inhibitor (IBMX, 0.6 mM). The reaction is initiated by mixing 6,000 cells in 6 μL with 6 μL Alexa Fluor labeled cAMP antibody (LANCE™ kit) which is then added to an assay well containing 12 μL of compound (diluted in assay buffer to 2× final concentration). The reaction proceeds for 30 minutes at RT and is terminated by the addition of 24 ul detection buffer (LANCE™ kit). The assay plate is then incubated for 1 h at RT and time-resolved fluorescence measured on a Perkin Elmer Envision reader or equivalent. The unknown cAMP level is determined by comparing fluorescence levels to a cAMP standard curve.
The non-selective, full agonist β-adrenergic ligand isoproterenol is used at all three receptors to determine maximal stimulation. The human β3 adrenergic receptor (AR) selective ligand (S)-N-[4-[2-[[2-hydroxy-3-(4-hydroxyphenoxy)propyl]amino]ethyl]-phenyl]-4-iodobenzenesulfonamide is used as a control in all assays. […] The EC50 is defined as the concentration of compound that gives 50% activation of its own maximum. Data are analyzed using Microsoft Excel and Graphpad Prism or an internally developed data analysis software package.
The EC50 is defined as the concentration of compound that gives 50% activation of its own maximum. Functional antagonist assays are performed similar to described above; however, unknown ligands are titrated at β-adrenergic receptor subtypes 1 and 2 at a final concentration in the assay of 10^-12 M to 10^-5 M in the presence of 10^-9 M full agonist β-adrenergic ligand isoproterenol. The EC50 is defined as the concentration of compound that gives 50% inhibition of the full agonist response. Data are analyzed using Microsoft Excel and Graphpad Prism or an internally developed data analysis software package.

T1 sequence (P13945 whole entry): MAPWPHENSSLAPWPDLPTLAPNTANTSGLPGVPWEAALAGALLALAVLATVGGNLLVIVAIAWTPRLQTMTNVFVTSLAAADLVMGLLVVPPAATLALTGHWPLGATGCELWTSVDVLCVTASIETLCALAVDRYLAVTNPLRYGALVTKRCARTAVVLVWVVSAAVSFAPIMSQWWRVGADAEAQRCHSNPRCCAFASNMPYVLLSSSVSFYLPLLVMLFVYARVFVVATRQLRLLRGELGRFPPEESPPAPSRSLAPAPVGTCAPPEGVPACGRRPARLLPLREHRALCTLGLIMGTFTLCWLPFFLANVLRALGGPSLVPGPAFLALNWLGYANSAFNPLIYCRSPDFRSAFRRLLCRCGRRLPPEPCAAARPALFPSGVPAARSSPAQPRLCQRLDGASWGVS

SMILES | EC50
O=C(NCc1cccnn1)c1ccc(C[C@@H]2CC[C@H]([C@H](O)c3ccccc3)N2)cc1 [Example 8] | 100 to 999 nM
O=C(NCc1ncccn1)c1ccc(C[C@@H]2CC[C@H]([C@H](O)c3ccccc3)N2)cc1 [Example 9] | 100 to 999 nM
O=C(NCc1cnccn1)c1ccc(C[C@@H]2CC[C@H]([C@H](O)c3ccccc3)N2)cc1 [Example 10] | 100 to 999 nM
CC(NC(=O)c1ccc(C[C@@H]2CC[C@H]([C@H](O)c3ccccc3)N2)cc1)c1cnccn1 (stereo partly drawn) [Example 11] | 999 to 3000 nM
Cc1cccc(CNC(=O)c2ccc(C[C@@H]3CC[C@H]([C@H](O)c4ccccc4)N3)cc2)n1 [Example 17] | 100 to 999 nM
O=C(NCc1cc(-c2ccccc2)no1)c1ccc(C[C@@H]2CC[C@H]([C@H](O)c3ccc[n+]([O-])c3)N2)cc1 [Example 31] | 100 to 999 nM
Cn1c(CNC(=O)c2ccc(C[C@@H]3CC[C@H]([C@H](O)c4ccccc4)N3)cc2)nc2ccccc21 [Example 35] | 10 to 99.9 nM
Cn1c(CNC(=O)c2ccc(C[C@@H]3CC[C@H]([C@H](O)c4cccnc4)N3)cc2)nc2ccccc21 [Example 36] | 10 to 99.9 nM
O=C(NCc1nc2cccnc2[nH]1)c1ccc(C[C@@H]2CC[C@H]([C@H](O)c3ccccc3)N2)cc1 [Example 37] | 10 to 99.9 nM
O=C(NCc1nc2ccncc2[nH]1)c1ccc(C[C@@H]2CC[C@H]([C@H](O)c3cccnc3)N2)cc1 [Example 39] | 10 to 99.9 nM
O=C(NCc1nc2ccccc2s1)c1ccc(C[C@@H]2CC[C@H]([C@H](O)c3ccccc3)N2)cc1 [Example 40] | 10 to 99.9 nM
O=C(NCc1nc2ccccc2s1)c1ccc(C[C@@H]2CC[C@H]([C@H](O)c3cccnc3)N2)cc1 [Example 41] | 10 to 99.9 nM
O=C(NCc1nccc2ccccc12)c1ccc(C[C@@H]2CC[C@H]([C@H](O)c3cccnc3)N2)cc1 [Example 43] | 10 to 99.9 nM
O=C(NCc1ccc2ccccc2n1)c1ccc(C[C@@H]2CC[C@H]([C@H](O)c3ccccc3)N2)cc1 [Example 44] | 10 to 99.9 nM
O=C(NCc1cc2ccccc2cn1)c1ccc(C[C@@H]2CC[C@H]([C@H](O)c3ccccc3)N2)cc1 [Example 45] | 10 to 99.9 nM
O=C(NCc1ccccc1-c1c[nH]cn1)c1ccc(C[C@@H]2CC[C@H]([C@H](O)c3ccccc3)N2)cc1 [Example 46] | 100 to 999 nM
O=C(NC1CCc2scnc21)c1ccc(C[C@@H]2CC[C@H]([C@H](O)c3ccccc3)N2)cc1 (stereo partly drawn) [Example 47] | 100 to 999 nM
O=C(NC1CCCc2cccnc21)c1ccc(C[C@@H]2CC[C@H]([C@H](O)c3ccccc3)N2)cc1 (stereo partly drawn) [Example 48] | 100 to 999 nM
CN1CCC(NC(=O)c2ccc(C[C@@H]3CC[C@H]([C@H](O)c4cccnc4)N3)cc2)C1=O (stereo partly drawn) [Example 49] | 100 to 999 nM

Next, values leading:

EC50 | SMILES
10 to 99.9 nM | O=C(NCc1ccccn1)c1ccc(C[C@@H]2CC[C@H]([C@H](O)c3ccccc3)N2)cc1 [Example 2]
10 to 99.9 nM | Cc1cc(C)nc(CNC(=O)c2ccc(C[C@@H]3CC[C@H]([C@H](O)c4ccccc4)N3)cc2)n1 [Example 3]
10 to 99.9 nM | O=C(NCc1ncccc1F)c1ccc(C[C@@H]2CC[C@H]([C@H](O)c3ccccc3)N2)cc1 [Example 4]
10 to 99.9 nM | O=C(NCc1cc(Cl)ccn1)c1ccc(C[C@@H]2CC[C@H]([C@H](O)c3ccccc3)N2)cc1 [Example 5]
10 to 99.9 nM | O=C(NCc1cccc(Cl)n1)c1ccc(C[C@@H]2CC[C@H]([C@H](O)c3ccccc3)N2)cc1 [Example 6]
10 to 99.9 nM | COC(=O)c1ccnc(CNC(=O)c2ccc(C[C@@H]3CC[C@H]([C@H](O)c4ccccc4)N3)cc2)c1 [Example 7]
10 to 99.9 nM | O=C(NCc1ccncn1)c1ccc(C[C@@H]2CC[C@H]([C@H](O)c3ccccc3)N2)cc1 [Example 12]
10 to 99.9 nM | Cc1cccnc1CNC(=O)c1ccc(C[C@@H]2CC[C@H]([C@H](O)c3ccccc3)N2)cc1 [Example 13]
10 to 99.9 nM | O=C(NCc1nccc(C(F)(F)F)n1)c1ccc(C[C@@H]2CC[C@H]([C@H](O)c3ccccc3)N2)cc1 [Example 14]
10 to 99.9 nM | O=C(NCc1nccc(C2CC2)n1)c1ccc(C[C@@H]2CC[C@H]([C@H](O)c3ccccc3)N2)cc1 [Example 15]
10 to 99.9 nM | Cc1cc(C2CC2)nc(CNC(=O)c2ccc(C[C@@H]3CC[C@H]([C@H](O)c4ccccc4)N3)cc2)n1 [Example 16]
10 to 99.9 nM | Cc1ccnc(CNC(=O)c2ccc(C[C@@H]3CC[C@H]([C@H](O)c4ccccc4)N3)cc2)n1 [Example 18]
10 to 99.9 nM | Cc1ccnc(CNC(=O)c2ccc(C[C@@H]3CC[C@H]([C@H](O)c4ccccc4)N3)cc2)c1 [Example 19]
10 to 99.9 nM | Cc1nccnc1CNC(=O)c1ccc(C[C@@H]2CC[C@H]([C@H](O)c3ccccc3)N2)cc1 [Example 20]
10 to 99.9 nM | O=C(NCc1nccc(-c2ccccc2)n1)c1ccc(C[C@@H]2CC[C@H]([C@H](O)c3ccccc3)N2)cc1 [Example 21]
10 to 99.9 nM | Cc1cc(-c2ccccc2)nc(CNC(=O)c2ccc(C[C@@H]3CC[C@H]([C@H](O)c4ccccc4)N3)cc2)n1 [Example 22]
10 to 99.9 nM | O=C(NCc1cc(-c2ccccc2)ncn1)c1ccc(C[C@@H]2CC[C@H]([C@H](O)c3ccccc3)N2)cc1 [Example 23]
10 to 99.9 nM | O=C(NCc1ncc(-c2ccccc2)cn1)c1ccc(C[C@@H]2CC[C@H]([C@H](O)c3ccccc3)N2)cc1 [Example 24]
10 to 99.9 nM | Nc1nc(CNC(=O)c2ccc(C[C@@H]3CC[C@H]([C@H](O)c4ccccc4)N3)cc2)cs1 [Example 25]
10 to 99.9 nM | Nc1nc(CNC(=O)c2ccc(C[C@@H]3CC[C@H]([C@H](O)c4cccnc4)N3)cc2)cs1 [Example 26]
10 to 99.9 nM | Cc1nc(CNC(=O)c2ccc(C[C@@H]3CC[C@H]([C@H](O)c4ccccc4)N3)cc2)cs1 [Example 27]
10 to 99.9 nM | O=C(NCc1nc(C(F)(F)F)cc(=O)[nH]1)c1ccc(C[C@@H]2CC[C@H]([C@H](O)c3ccccc3)N2)cc1 [Example 28]
10 to 99.9 nM | O=C(NCc1cc(-c2ccccc2)no1)c1ccc(C[C@@H]2CC[C@H]([C@H](O)c3ccccc3)N2)cc1 [Example 29]
10 to 99.9 nM | O=C(NCc1cc(-c2ccccc2)no1)c1ccc(C[C@@H]2CC[C@H]([C@H](O)c3cccnc3)N2)cc1 [Example 30]
10 to 99.9 nM | O=C(NCc1cc(-c2ccccc2)n[nH]1)c1ccc(C[C@@H]2CC[C@H]([C@H](O)c3ccccc3)N2)cc1 [Example 32]
1 to 9.9 nM | O=C(NCc1nc(-c2ccccc2)n[nH]1)c1ccc(C[C@@H]2CC[C@H]([C@H](O)c3cccnc3)N2)cc1 [Example 33]
10 to 99.9 nM | O=C(NCc1nc2ccccc2[nH]1)c1ccc(C[C@@H]2CC[C@H]([C@H](O)c3ccccc3)N2)cc1 [Example 34]
1 to 9.9 nM | O=C(NCc1nc2ccncc2[nH]1)c1ccc(C[C@@H]2CC[C@H]([C@H](O)c3ccccc3)N2)cc1 [Example 38]
1 to 9.9 nM | O=C(NCc1nccc2ccccc12)c1ccc(C[C@@H]2CC[C@H]([C@H](O)c3ccccc3)N2)cc1 [Example 42]

Same assay, conditions: Table 2, CHO cells with cloned β3 receptor, ligands titrated 10^-10 M to 10^-5 M, read-out: Human β3 agonist functional activity

SMILES | EC50
Cc1cc(C)nc(CNC(=O)c2ccc(C[C@@H]3CC[C@H]([C@H](O)c4ccc(F)cc4)N3)cc2)n1 [Example 50] | 10 to 99.9 nM

Same assay, conditions: Table 3, CHO cells with cloned β3 receptor, ligands titrated 10^-12 M to 10^-5 M, read-out: Human β3 agonist functional activity

SMILES | EC50
CN(C(=O)c1ccc(CC2CCC(C(O)c3ccccc3)N2)cc1)C(c1ccccn1)C1CC1 (mixture of isomers) [Example 96] | 100 to 999 nM
CC(C1COc2ccccc2O1)N(C)C(=O)c1ccc(C[C@@H]2CC[C@H]([C@H](O)c3ccccc3)N2)cc1 (single isomer, unassigned) [Example 94] | 10 to 99.9 nM
CC(C1COc2ccccc2O1)N(C)C(=O)c1ccc(C[C@@H]2CC[C@H]([C@H](O)c3ccccc3)N2)cc1 (single isomer, unassigned) [Example 95] | 100 to 999 nM

Same assay, conditions: given as a range, CHO cells with cloned β3 receptor, read-out: human Beta-3 agonist functional activity

SMILES | EC50
O=C(NCc1nc(-c2ccccc2)n[nH]1)c1ccc(C[C@@H]2CC[C@H]([C@H](O)c3ccccc3)N2)cc1 [Example 1, 4-({(2S,5R)-5-[(R)-hydroxy(phenyl)methyl]pyrolidin-2-yl}methyl)-N-[(3-phenyl-1H-1,2,4-triazol-5-yl)methyl]benzamide] | 1 to 9.9 nM
CN(Cc1cccnc1)C(=O)c1ccc(C[C@@H]2CC[C@H]([C@H](O)c3ccccc3)N2)cc1 [Example 51, 4-({(2S,5R)-5-[(R)-hydroxy(phenyl)methyl]pyrrolidin-2-yl}methyl)-N-methyl-N-(pyridine-3-ylmethyl)benzamide] | 1 to 9.9 nM
